The test system of assay [1] is acute myelogenous leukemia cells (MV-4-11 cells). Put plainly: Cytotoxicity to acute myelogenous leukemia cells (MV-4-11 cells), CCK-8. Particulars: Homo sapiens, MV4-11, 72 h.
Description: The following experiment was performed to evaluate the cytotoxicity of [1,2,4]triazolo[4,3-a]quinoxaline derivative according to the present invention to acute myelogenous leukemia cells (MV-4-11 cells).
Acute myelogenous leukemia cells (MV-4-11 cells) were distributed in a 96 well plate at the density of 5×10^3 cells/well. The plated cells were treated with the compounds of the present invention dissolved in DMSO at the different concentrations ranging from 0.01 μM to 10 μM. 72 hours later, the activities of the compounds were determined using CCK-8 reagent.
Assay [2] addresses BRD4 (BD1+BD2) bromodomain (Homo sapiens (Human), UniProt O60885). As to the kind of experiment: BRD4 binding inhibition (AlphaScreen, GST-BRD4 vs tetraacetylated histone H4 peptide). In short, it runs like this:
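AlphaScreen read after 30 min dark incubation at room temperature with glutathione acceptor/streptavidin donor beads (10 μg/ml each). The beads were added to compound plus 100 nM biotin-H4 (K5,8,12,16-acetyl) peptide and 100 nM GST-BRD4 BD1+BD2 in pH 7.4 HEPES/Tween/BSA/DTT buffer.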
For orientation: Bead proximity is the source of the signal in Alpha formats.

Setting [3] is: read-out: IC50, cytotoxicity against acute myelogenous leukemia cells.
Where [4] appears, read: read-out: MV-4-11 Cytotoxicity IC50.
[5] abbreviates: GST-BRD4 (BD1+BD2) / biotinylated acetyl-histone H4 (Lys5,8,12,16) peptide, read-out: IC50, BRD4 binding inhibition.
Setting [6] is: GST-BRD4 (BD1+BD2) vs biotinylated acetyl-histone H4 peptide, AlphaScreen, read-out: BRD4 IC50.

Like-named read-outs stand apart in the source and are kept apart here.

Usually IC50 stands for the point on the concentration scale where inhibition reaches its midpoint. Regarding `COc1cc(C)c2nc(NCCCCNC(=O)CC(C)C)c3nnc(C)n3c2c1` [Example 160, N-[4-(8-methoxy-1,6-dimethyl-[1,2,4]triazolo[4,3-a]quinoxaline-4-ylamino)-butyl]-3-methyl-butyramide], the IC50 is not above 200 nM in assay [1] (setting [3]), 70 nM in assay [1] (setting [4]), not above 50 nM in assay [2] (setting [5]) and 28 nM in assay [2] (setting [6]).
As for `COCCOc1cc2nc(NCCCCNC(=O)OC(C)(C)C)c3nnc(C)n3c2cc1OCCOC` [Example 162, {4-[7,8-bis-(2-methoxy-ethoxy)-1-methyl-[1,2,4]triazolo[4,3-a]quinoxaline-4-ylamino]-butyl}-carbamic acid-tert-butylester], the IC50 is 640 nM in assay [1] (setting [4]), not above 50 nM in assay [2] (setting [5]) and 24 nM in assay [2] (setting [6]).
On to `COCCOc1cc2nc(NCCCCNC(=O)C(C)(C)C)c3nnc(C)n3c2cc1OCCOC` [Example 164, N-{4-[7,8-bis-(2-methoxy-ethoxy)-1-methyl-[1,2,4]triazolo[4,3-a]quinoxaline-4-ylamino]-butyl}-2,2-dimethyl-propionamide], for which the IC50 in assay [1] (setting [4]) is 570 nM; in assay [2] (setting [5]) it was not above 50 nM; in assay [2] (setting [6]), 37 nM.
With `COCCOc1cc2nc(NCCCCNC(=O)NC(C)(C)C)c3nnc(C)n3c2cc1OCCOC` [Example 169, 1-{4-[7,8-bis-(2-methoxy-ethoxy)-1-methyl-[1,2,4]triazolo[4,3-a]quinoxaline-4-ylamino]-butyl}-3-tert-butyl-urea], the results for the IC50 in assay [1] (setting [4]), in assay [2] (setting [5]) and in assay [2] (setting [6]) were 860 nM, not above 50 nM and 41 nM, respectively.
Take `COCCOc1cc2nc(NCCCCNC(=O)c3ccccc3)c3nnc(C)n3c2cc1OCCOC` [Example 170, N-{4-[7,8-bis-(2-methoxy-ethoxy)-1-methyl-[1,2,4]triazolo[4,3-a]quinoxaline-4-ylamino]-butyl}-benzamide]: the IC50 in assay [1] (setting [4]) is 530 nM; in assay [2] (setting [5]), not above 50 nM; in assay [2] (setting [6]) it was 38 nM.
Consider `COCCOc1cc2nc(NCCCCNC(=O)c3ccc(C)nc3Cl)c3nnc(C)n3c2cc1OCCOC` [Example 172, N-{4-[7,8-bis-(2-methoxy-ethoxy)-1-methyl-[1,2,4]triazolo[4,3-a]quinoxaline-4-ylamino]-butyl}-2-chloro-6-methyl-nicotinamide], for which the IC50 in assay [1] (setting [4]) was 280 nM; in assay [2] (setting [5]), not above 50 nM; in assay [2] (setting [6]), 40 nM.
On the same counts, the results for `CCOc1cc2nc(NCCCCNC(=O)OC(C)(C)C)c3nnc(C)n3c2cc1OCC` [Example 173] are 360 nM, not above 10 nM and 4 nM.
The corresponding values for `CCOc1cc2nc(NCCCCNC(=O)OC(C)C)c3nnc(C)n3c2cc1OCC` [Example 175, [4-(7,8-diethoxy-1-methyl-[1,2,4]triazolo[4,3-a]quinoxaline-4-ylamino)-butyl]-carbamic acid isopropylester] are 260 nM, not above 50 nM and 26 nM.
Regarding `CCOc1cc2nc(NCCCCNC(=O)OCC(C)C)c3nnc(C)n3c2cc1OCC` [Example 176, [4-(7,8-diethoxy-1-methyl-[1,2,4]triazolo[4,3-a]quinoxaline-4-ylamino)-butyl]-carbamic acid isobutylester], the IC50 was not above 200 nM in assay [1] (setting [3]), 110 nM in assay [1] (setting [4]), not above 10 nM in assay [2] (setting [5]) and 2 nM in assay [2] (setting [6]).
Consider `CCOc1cc2nc(NCCCCNC(=O)CC(C)C)c3nnc(C)n3c2cc1OCC` [Example 177], for which the IC50 in assay [1] (setting [3]) is not above 200 nM; in assay [1] (setting [4]), 110 nM; in assay [2] (setting [5]), not above 50 nM; in assay [2] (setting [6]), 50 nM.
With `Cc1nnc2c(NCCCCNC(=O)OC(C)(C)C)nc3cc4c(cc3n12)OCCO4` [Example 178, [4-(1-methyl-8,9-dihydro-7,10-dioxa-2,3,5,11b-tetraaza-cyclopenta[a]anthracene-4-ylamino)-butyl]-carbamic acid-tert-butylester], the IC50 in assay [1] (setting [4]) is 440 nM; in assay [2] (setting [5]), not above 50 nM; in assay [2] (setting [6]), 17 nM.

The values are drawn from US11028090B2 (Dong Wha Pharm. Co., Ltd., priority 2017, dated 2021).
